Test results: US20240270741A1 (Cogent Biosciences, Inc., priority 2023, published 2024)

target: FGFR2 (Homo sapiens, UniProt P21802); assay: FGFR wild type enzyme assay (HTRF KinEASE-TK), FGFR2; settings: Enz FGFR2 (nM), FGFR2 wild type enzyme assay
Sequence (P21802 399-821 limits assumed): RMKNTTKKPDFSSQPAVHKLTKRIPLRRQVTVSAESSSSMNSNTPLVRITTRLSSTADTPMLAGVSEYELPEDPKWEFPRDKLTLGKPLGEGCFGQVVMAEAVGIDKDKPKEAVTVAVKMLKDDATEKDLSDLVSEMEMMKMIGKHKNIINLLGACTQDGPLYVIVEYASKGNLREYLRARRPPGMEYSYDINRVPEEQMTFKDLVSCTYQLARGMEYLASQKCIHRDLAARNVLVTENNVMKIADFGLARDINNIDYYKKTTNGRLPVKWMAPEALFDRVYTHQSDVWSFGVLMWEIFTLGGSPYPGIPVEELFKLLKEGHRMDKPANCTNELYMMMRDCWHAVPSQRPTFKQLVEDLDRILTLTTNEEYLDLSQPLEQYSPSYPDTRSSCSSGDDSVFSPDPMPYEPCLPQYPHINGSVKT

Structure (SMILES)	IC50
Cc1c(-c2cc(Sc3ccc(F)cc3C#N)c3c(C#N)cnn3c2)cnn1[C@H]1CCCNC1 [Example 333, (S)-4-((2-cyano-4-fluorophenyl)thio)-6-(5-methyl-1-(piperidin-3-yl)-1H-pyrazol-4-yl)pyrazolo[1,5-a]pyridine-3-carbonitrile]	1 nM
Cc1c(-c2cc(Sc3ccc(F)cc3C#N)c3c(C#N)cnn3c2)cnn1[C@H]1CCCN(C)C1 [Example 335, (S)-4-((2-cyano-4-fluorophenyl)thio)-6-(5-methyl-1-(1-methylpiperidin-3-yl)-1H-pyrazol-4-yl)pyrazolo[1,5-a]pyridine-3-carbonitrile]	1 nM
Cc1c(-c2cc(Sc3ccc(F)cc3C#N)c3c(C#N)cnn3c2)cnn1[C@H]1CCCN(CCO)C1 [Example 336, (S)-4-((2-cyano-4-fluorophenyl)thio)-6-(1-(1-(2-hydroxyethyl)piperidin-3-yl)-5-methyl-1H-pyrazol-4-yl)pyrazolo[1,5-a]pyridine-3-carbonitrile]	1 nM
Cc1nn([C@H]2CC[C@@H](N(C)C)CC2)c(C)c1-c1cc(Sc2ccccc2C#N)c2c(C#N)cnn2c1 [Example 337, 4-((2-cyanophenyl)thio)-6-(1-((1s,4s)-4-(dimethylamino)cyclohex-yl)-3,5-dimethyl-1H-pyrazol-4-yl)pyrazolo[1,5-a]pyridine-3-carbonitrile]	3 nM
Cc1c(-c2cc(Sc3ccc(F)cc3C#N)c3c(C#N)cnn3c2)cnn1C1CCN(C(=O)CO)CC1 [Example 339, 4-((2-cyano-4-fluorophenyl)thio)-6-(1-(1-(2-hydroxyacetyl)piperidin-4-yl)-5-methyl-1H-pyrazol-4-yl)pyrazolo[1,5-a]pyridine-3-carbonitrile]	1 nM
C#Cc1cnn2cc(-c3cnn(C4CCN(C(=O)CO)CC4)c3C)cc(Sc3ccc(F)cn3)c12 [Example 340, 1-(4-(4-(3-ethynyl-4-((5-fluoropyridin-2-yl)thio)pyrazolo[1,5-a]pyridin-6-yl)-5-methyl-1H-pyrazol-1-yl)piperidin-1-yl)-2-hydroxyethan-1-one]	7.5 nM
Cc1c(-c2cc(Sc3ccc(F)cn3)c3c(C#N)cnn3c2)cnn1C1CCN(C(=O)[C@H](C)O)CC1 [Example 341, (S)-4-((5-fluoropyridin-2-yl)thio)-6-(1-(1-(2-hydroxypropanoyl)piperidin-4-yl)-5-methyl-1H-pyrazol-4-yl)pyrazolo[1,5-a]pyridine-3-carbonitrile]	9 nM
Cc1c(-c2cc(Sc3ncc(F)cc3F)c3c(C#N)cnn3c2)cnn1C1CCN(C(=O)[C@H](C)O)CC1 [Example 342, (S)-4-((3,5-difluoropyridin-2-yl)thio)-6-(1-(1-(2-hydroxypropanoyl)piperidin-4-yl)-5-methyl-1H-pyrazol-4-yl)pyrazolo[1,5-a]pyridine-3-carbonitrile]	6 nM
Cc1c(-c2cc(Sc3ncc(F)cc3F)c3c(C#N)cnn3c2)cnn1[C@H]1CCCN(C)C1 [Example 346, (S)-4-((3,5-difluoropyridin-2-yl)thio)-6-(5-methyl-1-(1-methylpiperidin-3-yl)-1H-pyrazol-4-yl)pyrazolo[1,5-a]pyridine-3-carbonitrile]	5 nM
CN[C@]1(C)CC[C@H](n2ncc(-c3cc(Sc4ccccn4)c4c(C#N)cnn4c3)c2C)CC1 [Example 348, 6-(5-methyl-1-((1s,4s)-4-methyl-4-(methylamino)cyclohexyl)-1H-pyrazol-4-yl)-4-(pyridin-2-ylthio)pyrazolo[1,5-a]pyridine-3-carbonitrile]	2 nM
CC(=O)N[C@H]1CC[C@@H](n2cc(-c3cc(Sc4ccc(F)cn4)c4c(C#N)cnn4c3)cn2)CC1 [Example 349, N-((1s,4s)-4-(4-(3-cyano-4-((5-fluoropyridin-2-yl)thio)pyrazolo[1,5-a]pyridin-6-yl)-1H-pyrazol-1-yl)cyclohexyl)acetamide]	3 nM
CC(=O)N[C@H]1CC[C@H](n2cc(-c3cc(Sc4ccccc4C#N)c4c(C#N)cnn4c3)cn2)C1 [Example 350, N-((1s,3S)-3-(4-(3-cyano-4-((2-cyanophenyl)thio)pyrazolo [1,5-a]pyridin-6-yl)-1H-pyrazol-1-yl)cyclopentyl)acetamide]	0.5 nM
Cc1c(-c2cc(Sc3ccc(F)cc3C#N)c3c(C#N)cnn3c2)cnn1[C@H]1CC[C@](C)(N)CC1 [Example 351, 6-(1-((1r,4r)-4-amino-4-methylcyclohexyl)-5-methyl-1H-pyrazol-4-yl)-4-((2-cyano-4-fluorophenyl)thio)pyrazolo [1,5-a]pyridine-3-carbonitrile]	0.5 nM
CN[C@]1(C)CC[C@@H](n2ncc(-c3cc(Sc4ccc(F)cc4C#N)c4c(C#N)cnn4c3)c2C)CC1 [Example 352, 4-((2-cyano-4-fluorophenyl)thio)-6-(5-methyl-1-((1r,4r)-4-methyl-4-(methylamino)cyclohexyl)-1H-pyrazol-4-y)pyrazolo[1,5-a]pyridine-3-carbonitrile]	0.6 nM
Cc1c(-c2cc(Sc3ccc(F)cc3C#N)c3c(C#N)cnn3c2)cnn1C1CCN(CCO)CC1 [Example 353, 4-((2-cyano-4-fluorophenyl)thio)-6-(1-(1-(2-hydroxyethyl)piperidin-4-yl)-5-methyl-1H-pyrazol-4-yl)pyrazolo[1,5-a]pyridine-3-carbonitrile]	1 nM
Cc1c(-c2cc(Sc3ccc(F)cc3C#N)c3c(C#N)cnn3c2)cnn1C1CCN(C[C@H](C)O)CC1 [Example 354, (S)-4-((2-cyano-4-fluorophenyl)thio)-6-(1-(1-(2-hydroxypropyl)piperidin-4-yl)-5-methyl-1H-pyrazol-4-yl)pyrazolo[1,5-a]pyridine-3-carbonitrile]	2.5 nM
Cc1cccc(Sc2cc(-c3cnn(C4CCN(C)CC4)c3C)cn3ncc(C#N)c23)c1C#N [Example 355, 4-((2-cyano-3-methylphenyl)thio)-6-(5-methyl-1-(1-methylpiperidin-4-yl)-1H-pyrazol-4-yl)pyrazolo[1,5-a]pyridine-3-carbonitrile]	2 nM
Cc1c(-c2cc(Sc3cc(F)ccc3C#N)c3c(C#N)cnn3c2)cnn1C1CCN(C)CC1 [Example 359, 4-((2-cyano-5-fluorophenyl)thio)-6-(5-methyl-1-(1-methylpiperidin-4-yl)-1H-pyrazol-4-yl)pyrazolo[1,5-a]pyridine-3-carbonitrile]	1.5 nM
COC(=O)N1CCC(n2ncc(-c3cc(Sc4ccc(F)cc4C#N)c4c(C#N)cnn4c3)c2C)CC1 [Example 361, methyl 4-(4-(3-cyano-4-((2-cyano-4-fluorophenyl)thio)pyrazolo [1,5-a]pyridin-6-yl)-5-methyl-1H-pyrazol-1-yl)piperidine-1-carboxylate]	2 nM

The remaining compounds from weak to strong by IC50, led by results:

IC50	Structure (SMILES)
10 nM	Cc1c(-c2cc(Sc3cccc(F)c3C#N)c3c(C#N)cnn3c2)cnn1C1CCN(C)CC1 [Example 356, 4-((2-cyano-3-fluorophenyl)thio)-6-(5-methyl-1-(1-methylpiperidin-4-yl)-1H-pyrazol-4-yl)pyrazolo[1,5-a]pyridine-3-carbonitrile]
9 nM	Cc1c(-c2cc(Sc3ccc(F)cn3)c3c(C#N)cnn3c2)cnn1[C@H]1CCCN(C)C1 [Example 343, (S)-4-((5-fluoropyridin-2-yl)thio)-6-(5-methyl-1-(1-methylpiperidin-3-yl)-1H-pyrazol-4-yl)pyrazolo[1,5-a]pyridine-3-carbonitrile]
4 nM	Cc1c(-c2cc(Sc3ncc(F)cc3F)c3c(C#N)cnn3c2)cnn1[C@H]1CCCNC1 [Example 345, (S)-4-((3,5-difluoropyridin-2-yl)thio)-6-(5-methyl-1-(piperidin-3-yl)-1H-pyrazol-4-yl)pyrazolo[1,5-a]pyridine-3-carbonitrile]
3 nM	Cc1c(-c2cc(Sc3ncc(F)cc3F)c3c(C#N)cnn3c2)cnn1[C@H]1CC[C@@H](NC(=O)CO)CC1 [Example 344, N-((1s,4s)-4-(4-(3-cyano-4-((3,5-difluoropyridin-2-yl)thio)pyrazolo[1,5-a]pyridin-6-yl)-5-methyl-1H-pyrazol-1-yl)cyclohexyl)-2-hydroxyacetamide]
2.5 nM	CN[C@H]1CC[C@H](n2ncc(-c3cc(Sc4ccccn4)c4c(C#N)cnn4c3)c2C)CC1 [Example 347, 6-(5-methyl-1-((1r,4r)-4-(methylamino)cyclohexyl)-1H-pyrazol-4-yl)-4-(pyridin-2-ylthio)pyrazolo[1,5-a]pyridine-3-carbonitrile]
2 nM	Cc1ccc(C#N)c(Sc2cc(-c3cnn(C4CCN(C)CC4)c3C)cn3ncc(C#N)c23)c1 [Example 357, 4-((2-cyano-5-methylphenyl)thio)-6-(5-methyl-1-(1-methylpiperidin-4-yl)-1H-pyrazol-4-yl)pyrazolo[1,5-a]pyridine-3-carbonitrile]
2 nM	Cc1c(-c2cc(Sc3cc(Cl)ccc3C#N)c3c(C#N)cnn3c2)cnn1C1CCN(C)CC1 [Example 358, 4-((5-chloro-2-cyanophenyl)thio)-6-(5-methyl-1-(1-methylpiperidin-4-yl)-1H-pyrazol-4-yl)pyrazolo[1,5-a]pyridine-3-carbonitrile]
2 nM	Cc1c(-c2cc(Sc3ccc(F)cc3C#N)c3c(C#N)cnn3c2)cnn1C1CCN(C(=O)[C@H](C)O)CC1 [Example 360, (S)-4-((2-cyano-4-fluorophenyl)thio)-6-(1-(1-(2-hydroxypropanoyl)piperidin-4-yl)-5-methyl-1H-pyrazol-4-yl)pyrazolo[1,5-a]pyridine-3-carbonitrile]
1 nM	CC(=O)N1CCC[C@H](n2ncc(-c3cc(Sc4ccc(F)cc4C#N)c4c(C#N)cnn4c3)c2C)C1 [Example 334, (S)-6-(1-(1-acetylpiperidin-3-yl)-5-methyl-1H-pyrazol-4-yl)-4-((2-cyano-4-fluorophenyl)thio)pyrazolo [1,5-a]pyridine-3-carbonitrile]
1 nM	CC(=O)N1CCC(n2ncc(-c3cc(Sc4ccc(F)cc4C#N)c4c(C#N)cnn4c3)c2C)CC1 [Example 338, 6-(1-(1-acetylpiperidin-4-yl)-5-methyl-1H-pyrazol-4-yl)-4-((2-cyano-4-fluorophenyl)thio)pyrazolo [1,5-a]pyridine-3-carbonitrile]
